# Experimental data reported in PubChem BioAssay (NCI).
# Where “and” joins values, the source holds several entries; their conditions need not be identical. Equal values may be shown once.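 Dose response: 5 concentrations. Exposure: 48 h. Format: 96-well plates. Endpoint: linear interpolation; highest concentration if not reached. At the GI50, growth is halved. The concentration for full growth arrest is given as TGI.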
# Columns and labels:
# Test in all cases: inhibition of tumour cell growth, NCI panel, 48 h
# HOP-62 NSCLC = system: HOP-62 NSCLC
# SK-MEL-2 melanoma = system: SK-MEL-2 melanoma
# M14 melanoma = system: M14 melanoma
# NCI-H522 lung = system: NCI-H522 lung
# A498 renal = system: A498 renal
# SF-539 CNS = system: SF-539 CNS
# UO-31 renal = system: UO-31 renal
# T-47D breast = system: T-47D breast
# DU-145 prostate = system: DU-145 prostate
# MDA-MB-231 breast = system: MDA-MB-231 breast
Compound,GI50 (HOP-62 NSCLC),GI50 (SK-MEL-2 melanoma),TGI (SK-MEL-2 melanoma),TGI (M14 melanoma),GI50 (NCI-H522 lung),TGI (NCI-H522 lung),GI50 (A498 renal),TGI (A498 renal),GI50 (SF-539 CNS),GI50 (UO-31 renal),TGI (UO-31 renal),TGI (HOP-62 NSCLC),TGI (SF-539 CNS),TGI (T-47D breast),TGI (DU-145 prostate),TGI (MDA-MB-231 breast),GI50 (T-47D breast),GI50 (M14 melanoma),GI50 (DU-145 prostate),GI50 (MDA-MB-231 breast)
CC1[C@@H]2[C@@H](C=C3C4CCC5Cc6nc7c(nc6C[C@@]5(C)C4C[C@H](O)[C@]32CO)CC2CCC3C4=C[C@H]5O[C@@]6(O[C@@](C)(CO)C[C@@H]6O)C(C)[C@@]5(O)[C@]4(C)[C@@H](O)CC3[C@]2(C)C7)O[C@]12CCC(C)(C)O2 (stereo not given in full),< 0.000365 µM,0.0114 µM,0.455 µM and 0.284 µM,0.0639 µM,0.0228 µM,0.429 µM,0.00409 µM,0.0841 µM and 0.165 µM,0.00363 µM,0.117 µM,0.158 µM and 0.286 µM,–,–,–,–,–,–,–,–,–
CC[P+](C)(Cc1ccccc1)c1ccccc1 (stereo not given),–,–,> 100 µM,> 100 µM,–,> 100 µM,–,> 100 µM,–,–,> 100 µM,> 100 µM,> 100 µM,–,–,–,–,–,–,–
FC(F)(F)C1(Cl)C(c2ccccc2)=C1c1ccccc1,–,–,28.5 µM,25.6 µM,–,–,–,–,–,–,31.9 µM,32.7 µM,29.6 µM,–,–,–,–,–,–,–
Nc1ncnc2c1ncn2C1OC(COP(=O)(O)CP(=O)(O)O)C(O)C1O (stereo not given),–,–,> 100 µM,> 100 µM,–,> 100 µM,–,> 100 µM,–,–,> 100 µM,> 100 µM,> 100 µM,> 100 µM,> 100 µM,–,–,–,–,–
CCC(C)CN1C(=O)NC(C)(Cc2ccccc2)C1=O (stereo not given),–,–,> 100 µM,> 100 µM,–,> 100 µM,–,–,–,–,> 100 µM,> 100 µM,> 100 µM,–,–,–,–,–,–,–
CC1=CC2CC(C)=C(CC[C@]3(C)CC[C@H]([C@@H](C)C(=O)O)OO3)C(C)(C)C2CC1 (stereo not given in full),–,–,3.09 µM,2.67 µM,–,0.383 µM,–,3.14 µM,–,–,2.23 µM,3.41 µM,2.68 µM,–,–,–,–,–,–,–
CC1=NN(C(=O)c2ccccc2O)C(=O)/C1=C/c1ccc([N+](=O)[O-])cc1,–,0.97 µM,–,40.7 µM,2.03 µM,7.06 µM and 12.9 µM,–,–,0.476 µM,0.358 µM,1.88 µM,–,2.57 µM and 2.52 µM,> 100 µM,> 100 µM,> 100 µM,0.222 µM,3.01 µM,0.327 µM,–
COc1ccc(S(=O)(=O)NC(C)C(=O)O)cc1 (stereo not given),–,–,> 100 µM,> 100 µM,–,> 100 µM,–,> 100 µM,–,–,> 100 µM,–,> 100 µM,–,–,–,–,–,–,–
CN(C)c1ccc2c(c1)C(=O)N(OS(=O)(=O)c1ccc([N+](=O)[O-])cc1)C2=O,–,–,87 µM,38.8 µM,–,30.5 µM,–,> 100 µM,–,–,60.9 µM,> 100 µM,33.8 µM,–,–,–,–,–,–,–
CC1=CCC[C@@]2(C)C(CC[C@@H]2C(C)/C=C/C(C)C)c2ccc(cc2C(=O)O)C[C@@H](O)CC1 (stereo not given in full),–,–,37.5 µM,34 µM,–,29.8 µM,–,35.3 µM,–,–,29.2 µM,36.5 µM,21 µM,–,–,–,–,–,–,–
Cc1ccc(C)c(NC(=O)C(=O)CC(=O)C2CCOC2=O)c1 (stereo not given),–,–,> 100 µM,> 100 µM,–,> 100 µM,–,> 100 µM,–,–,> 100 µM,> 100 µM,> 100 µM,–,–,–,–,–,–,–
CCC1(C)NN=c2s/c(=C/c3ccc(OC)cc3)c(=O)n2N1 (stereo not given),–,–,> 100 µM,> 100 µM,–,> 100 µM,–,–,–,–,> 100 µM,> 100 µM,> 100 µM,–,–,–,–,–,–,–
N#C/C(=C\c1ccccc1O)C(N)=O,–,–,> 100 µM,> 100 µM,–,> 100 µM,–,> 100 µM,–,–,> 100 µM,> 100 µM,> 100 µM,–,–,–,–,–,–,–
CC(C)=CCN=C(N)N,–,–,> 100 µM,–,–,> 100 µM,–,–,–,–,> 100 µM,–,> 100 µM,> 100 µM,> 100 µM,> 100 µM,–,–,–,–
C[n+]1c(/C=C\C=C\N2CCCCC2)sc2ccccc21,2.26 µM,0.634 µM,14.3 µM,> 35.2 µM,–,–,0.293 µM,9.04 µM,1.03 µM,13.5 µM,> 71.3 µM,> 38.2 µM,15 µM,2.72 µM,17.1 µM,25.6 µM,0.2 µM,2.82 µM,0.598 µM,1.01 µM
COC(=O)Cc1cc(OC)c(OC)cc1Br,–,–,> 100 µM,> 100 µM,–,> 100 µM,–,> 100 µM,–,–,> 100 µM,> 100 µM,–,–,–,–,–,–,–,–
CCOc1ccccc1NC(=O)CCC(=O)OC,–,–,> 100 µM,> 100 µM,–,> 100 µM,–,> 100 µM,–,–,> 100 µM,> 100 µM,–,–,–,–,–,–,–,–
CC(=O)N1CCN(C2=Nc3ccccc3CO2)C1=S,> 100 µM,–,–,> 100 µM,49.2 µM,> 100 µM,–,–,> 100 µM,> 100 µM,> 100 µM,> 100 µM,> 100 µM,> 100 µM,> 100 µM,> 100 µM,33 µM,51.3 µM,> 100 µM,> 100 µM
O=C(CC1=Nc2nnc(-c3nnc4n3C(=O)C(CC(=O)c3cccnc3)=N4)n2C1=O)c1cccnc1,–,–,> 100 µM,> 100 µM,–,> 100 µM,–,> 100 µM,–,–,> 100 µM,> 100 µM,> 100 µM,–,–,–,–,–,–,–
O=P([O-])(O)OP(=O)([O-])O.[NH-][C@H]1CCCC[C@@H]1[NH-].[OH-].[OH-].[Pt+4],19.3 µM,–,–,> 100 µM,–,–,21.1 µM,39.9 µM,22.3 µM,19.1 µM,44 µM,35.4 µM,57.6 µM,61.4 µM,> 100 µM,57.2 µM,25 µM,40.3 µM,33.3 µM,25 µM
COc1ccc(/C(=N/NC(N)=O)C2(O)C(=O)Nc3ccc([N+](=O)[O-])cc32)cc1 (stereo not given),–,–,40.2 µM,31.1 µM,–,41.9 µM,–,87.5 µM,–,–,34.8 µM,> 100 µM,31.3 µM,–,–,–,–,–,–,–
N#Cc1cccc(N2C(=O)c3c(c(-c4ccccc4)c(-c4ccc(Sc5ccc(-c6c(-c7ccccc7)c7c(c(-c8ccccc8)c6-c6ccccc6)C(=O)N(c6cccc(C#N)c6)C7=O)cc5)cc4)c(-c4ccccc4)c3-c3ccccc3)C2=O)c1,–,–,> 100 µM,> 100 µM,–,> 100 µM,–,–,–,–,> 100 µM,> 100 µM,> 100 µM,–,–,–,–,–,–,–
Cc1cccc(C(=O)c2cccc3ccccc23)c1C(=O)O,–,–,> 100 µM,> 100 µM,–,> 100 µM,–,> 100 µM,–,–,> 100 µM,> 100 µM,> 100 µM,–,–,–,–,–,–,–
N#Cc1cc(C#N)c(Cl)nc1N,–,–,> 10 µM,–,–,–,–,–,–,–,> 10 µM,> 10 µM,> 10 µM,> 10 µM,–,–,–,–,–,–
